Laboratory results: article PMC4850295, “Using a Genetically Encoded Sensor to Identify Inhibitors of Toxoplasma gondii Ca^2+ Signaling” (The Journal of Biological Chemistry, 2016)

What follows are compounds tested on T1, GCaMP5-expressing T. gondii. Conditions: 100 uM zaprinast stimulation; 10 min pretreatment; mean of two replicates; 0.23 h.
T1 construct: whole extracellular parasites expressing GCaMP5 Ca2+ sensor
Design: species or system GCaMP5-expressing Toxoplasma gondii, extracellular; GCaMP5 fluorescence (cytosolic Ca2+) after 100 uM zaprinast in compound-pretreated extracellular parasites, background-subtracted, relative to zaprinast alone
Experimental: GCaMP5-expressing parasites were suspended in Ringer's solution at 4 × 10^7 parasites/ml, and 50 μl of parasites were applied to each well of a 96-well plate (Costar, catalog no. 3631). […] Parasites were then treated with 100 μM zaprinast or 0.1% DMSO as a vehicle control and incubated at 37 °C with 5% CO2 for an additional 4 min before measuring fluorescence with excitation and emission wavelengths of 485 and 525 nm, respectively, on a SpectraMax M3 (Molecular Devices). Basal fluorescence, measured from untreated parasites, was subtracted from all values, and results were expressed as -fold change from parasites treated only with zaprinast. Z′ factors were determined from (i) parasites treated with zaprinast versus untreated parasites and (ii) parasites treated with a final concentration of 1 μM Cpd2 or a vehicle control followed by zaprinast, using the formula, Z′ = 1 − 3(σp + σn)/(|μp − μn|), where σp and σn indicate S.D. values of positive and negative controls, and μp and μn indicate the means of positive and negative controls, respectively. […] We predicted that the zaprinast response measured in GCaMP5-expressing parasites could form the basis for a phenotypic screen. Such a screen would benefit from the known importance of Ca^2+ signaling in parasite biology along with the reported success rate of cell-based phenotypic assays. We designed a screen wherein extracellular GCaMP5-expressing parasites were pretreated with compounds for 10 min before stimulation with zaprinast, and parasite fluorescence was measured 4 min later. We expected that compounds that interfered with the zaprinast response would reduce fluorescence. We calculated a Z′-factor for this screen to determine its dynamic range and suitability to high throughput screening. To do so, we compared zaprinast-treated parasites to untreated parasites or those pretreated with the PKG inhibitor Compound 2 (Cpd2) ([55]). […] We obtained the compound libraries published kinase inhibitor sets PKIS1 ([57]) and PKIS2 (unpublished), from GlaxoSmithKline and applied our phenotypic screen to the 823 ATP mimetics represented in these collections (Fig. 2B and supplemental Table S1). The compounds were screened at a single 10 μM dose with two biological replicates.

SMILES	fold change in fluorescence relative to zaprinast alone
COc1cc(C2=NC(c3ccc(Cl)cc3F)C(C(=O)Nc3ccc4[nH]ncc4c3)=C(C)N2)ccn1 (centres unmarked) [GSK534911A]	1.41
COc1ccc(C2=NC(c3ccc(Cl)cc3F)C(C(=O)Nc3ccc4[nH]ncc4c3)=C(C)N2)cn1 (centres unmarked) [GSK534913A]	1.286
CCn1c(-c2nonc2N)nc2c(C#CCN)ncc(OCCCN)c21 [GSK561866B]	1.218
C[C@@H](Oc1cc(-n2cnc3ccc(OCC4CCN(C)CC4)cc32)sc1C(N)=O)c1ccccc1Cl [GSK571989A]	0.9822
C[C@@H](Oc1cc(-n2cnc3ccc(OC4CCN(C)CC4)cc32)sc1C(N)=O)c1ccccc1Cl [GSK579289A]	0.9541
C[C@@H](Oc1cc(-n2cnc3cc(-c4cnn(C)c4)ccc32)sc1C(N)=O)c1ccccc1Cl [GSK580432A]	1.313
Cc1ccc(S(=O)(=O)Nc2ccc(Nc3nccc(Nc4cccc5[nH]ncc45)n3)cc2)cc1 [GSK581271A]	0.8813
COc1ccc(-c2ccncc2)cc1C(N)=O [GSK605714A]	1.144
CCn1c(-c2nonc2N)nc2c(C#CC(C)(C)O)ncc(OC[C@@H]3CCCN3)c21 [GSK614526A]	1.198
CCn1c(-c2nonc2N)nc2c(C#CC(C)(C)O)ncc(OC3CCNCC3)c21 [GSK619487A]	1.184
NC(=O)c1cc(-c2ccc(F)cc2)cc(-c2ccncc2)c1N [GSK620503A]	1.057
NC(=O)c1cc(-c2ccncc2)cc(-c2ccccc2)c1N [GSK625137A]	1.053
CNC(=O)c1cc(-c2ccc(F)cc2)cc(-c2ccc(S(=O)(=O)N3CCCC3)cc2)c1N [GSK635416A]	1.111
C[C@@H](Oc1cc(-n2cnc3cc(-c4ccnc(N5CCN(C)CC5)c4)ccc32)sc1C(N)=O)c1ccccc1Cl [GSK641502A]	1.062
Nc1ncc(-c2cccnc2)c2scc(-c3ccc4c(c3)CCN4C(=O)Cc3ccccc3)c12 [GSK683281A]	1.385
COc1c(C(N)=O)cc(-c2ccc(Cl)cc2)cc1-c1ccc(S(N)(=O)=O)cc1 [GSK711701A]	1.357
CCn1cc(-c2ccnc3[nH]ccc23)c(-c2cccc(NC(=O)Nc3ccc(OCc4ccccc4)cc3)c2)n1 [GSK718429A]	1.268
O=S(=O)(c1ccc(-c2ccnc3[nH]ccc23)cc1)N1CCCC1 [GSK846226A]	1.029
CCn1c(-c2nonc2N)nc2c(C#CC(C)(C)O)nc(OCCN)cc21 [GSK902056A]	1.153
C[C@@H](Oc1cc(-n2cnc3cc(-c4ccnc(NCCS(C)(=O)=O)c4)ccc32)sc1C(N)=O)c1ccccc1Cl [GSK907232A]	1.132

SMILES	fold change in fluorescence relative to zaprinast alone
CCn1c(-c2nonc2N)nc2c(C#CC(C)(C)O)nc(OC[C@@H](N)c3ccccc3)cc21 [GSK938890A]	1.022
CCn1c(-c2nonc2N)nc2c(C#CC(C)(C)O)nc(OC[C@H](N)c3ccccc3)cc21 [GSK943949A]	1.114
CCn1c(-c2nonc2N)nc2c(C#CC(C)(C)O)nc(OCCNC)cc21 [GSK949675A]	1.152
NS(=O)(=O)c1ccc(-c2cc3ccncc3cc2OCc2ccccc2)cc1 [GSK953913A]	1.131
Cc1ccc(NC(=O)Nc2cccc(C(F)(F)F)c2)cc1 [GSK955403A]	0.9183
Fc1cccc(COc2ccc(Nc3ncnc4sc(-c5ccco5)cc34)cc2Cl)c1 [GSK969786A]	0.8987
NCCNS(=O)(=O)c1ccc(-c2ccnc3[nH]ccc23)cc1 [GSK977617A]	1.223
CN(C)CCNS(=O)(=O)c1ccc(-c2ccnc3[nH]ccc23)cc1 [GSK977620A]	1.218
NS(=O)(=O)c1cccc(-c2cc3ccncc3cc2OCc2ccccc2)c1 [GSK980961A]	0.9595
Cc1cccc(Nc2nc(N[C@H]3CCCC[C@H]3N)ncc2C(N)=O)c1 [GSK986310C]	1.388
CS(=O)(=O)Nc1ccc(-c2ccnc3[nH]ccc23)cc1 [GSK993273A]	1.181
CCCN1CCC=C(c2ccc(Nc3nc(Nc4ccccc4C(N)=O)c4cc[nH]c4n3)c(C)c2)C1 [GSK994854A]	1.737
CCn1c(-c2nonc2N)nc2c(C#CC(C)(C)O)nc(CN3CCCC3)cc21 [GSK1000163A]	1.153
CCn1c(-c2nonc2N)nc2c(C#CC(C)(C)O)nc(O[C@@H](CN)c3ccccc3)cc21 [GSK1007102B]	1.188
Cc1ccc(NC(=O)Nc2cc(C(C)(C)C)nn2-c2ccccc2)cc1 [GSK1014915A]	0.9452
NC(=O)c1sc(-n2cnc3ccccc32)cc1OCc1ccccc1Br [GSK1023156A]	0.8843
COC(=O)c1sc(-n2cnc3cc(OC)c(OC)cc32)cc1OCc1ccccc1C(F)(F)F [GSK1030058A]	0.7743
COc1cc2ncn(-c3cc(OCc4ccccc4C(F)(F)F)c(C(C)=O)s3)c2cc1OC [GSK1030059A]	1.158
CNC(=O)c1sc(-n2cnc3cc(OC)c(OC)cc32)cc1OCc1ccccc1C(F)(F)F [GSK1030061A]	1.028
COc1cc2ncn(-c3cc(OCc4ccccc4C(F)(F)F)c(C(=O)N(C)C)s3)c2cc1OC [GSK1030062A]	0.999

SMILES	fold change in fluorescence relative to zaprinast alone
O=c1[nH]cc(-c2ccc(O)cc2)c2sc(-c3ccncc3)cc12 [GSK1033723A]	1.385
Nc1nccc(-c2ccc3c(N)n[nH]c3c2)n1 [GSK1034945A]	1.107
CCCN1CCCC(c2ccc(Nc3nc(Nc4cc(F)ccc4C(N)=O)c4cc[nH]c4n3)c(OC)c2)C1 (centres unmarked) [GSK1173862A]	1.98
COc1cc(N2CCN(C(C)C)CC2)ccc1Nc1nc(Nc2ccc(F)cc2C(N)=O)c2cc[nH]c2n1 [GSK1220512A]	1.812
COc1ccc(Nc2nccc(-c3ccc(NC(=O)c4cc5cc(F)ccc5[nH]4)cc3)n2)cc1 [GSK1229496A]	1.727
NCC(NC(=O)c1cc(-c2ccnc3[nH]ccc23)cs1)c1ccccc1 (centres unmarked) [GSK1229959A]	0.7412
NCC(C(=O)Nc1cc(Br)c(-c2ccnc3[nH]ccc23)s1)c1ccccc1 (centres unmarked) [GSK1269851A]	0.2436
NCCCC(NC(=O)c1cc(Br)c(-c2ccnc3[nH]ccc23)s1)c1ccccc1 (centres unmarked) [GSK1287544A]	0.7469
Cc1cccc(Nc2nc(NCCN)ncc2C(N)=O)c1 [GSK1292139B]	0.903
NCCC(NC(=O)c1cc(Br)c(-c2ccnc3[nH]ccc23)s1)c1ccccc1 (centres unmarked) [GSK1307810A]	0.5195
NCC(NCc1ccc(-c2ccnc3[nH]ccc23)s1)c1ccccc1 (centres unmarked) [GSK1321565A]	0.4604
NC(CNC(=O)c1cc(Br)c(-c2ccnc3[nH]ccc23)s1)c1ccccc1 (centres unmarked) [GSK1322949A]	0.4024
NCC(NC(=O)c1cc(-c2cccnc2)c(-c2ccnc3[nH]ccc23)s1)c1ccccc1 (centres unmarked) [GSK1323434A]	0.997
NCC(NC(=O)c1cc(-c2cn[nH]c2)c(-c2ccnc3[nH]ccc23)s1)c1ccccc1 (centres unmarked) [GSK1325775A]	1.276
O=C(Nc1c(F)cccc1F)c1cc(C(=O)c2ccccc2F)c[nH]1 [GSK1326180A]	0.8808
CCCN1CCC(c2ccc(Nc3nc(Nc4cc(F)ccc4C(N)=O)c4cc[nH]c4n3)c(OC)c2)CC1 [GSK1326255A]	1.826
COc1ccc(CNC(=O)NC2CCN(c3ccnc(Nc4ccc(F)cc4)n3)C2)cc1 (centres unmarked) [GSK1379706A]	0.6471
N#Cc1cccc(C(=O)NC2CCN(c3ccnc(Nc4ccc(F)cc4)n3)C2)c1 (centres unmarked) [GSK1379708A]	1.095
CC(C(=O)NC1CCN(c2ccnc(Nc3ccc(F)cc3)n2)C1)c1ccc(Cl)cc1 (centres unmarked) [GSK1379713A]	0.7096
